pIC50: −log10 of the molar value.
Experiments:
[1] = biological target: T1, human adenosine A2A receptor (Homo sapiens, UniProt P29274); test: Adenosine A2A Receptor Functional Assay (A2AGAL2); format: cell-based; details: for pIC50: CHO-K1 cells overexpressing human A2A, cAMP inducible beta-galactosidase reporter, antagonist vs 15 nM NECA challenge; for A1/A2A: ratio of A1Gal2 to A2AGal2 value
T1 construct: expressed in transfected cells; host or cells: CHO-K1 cells with a cAMP inducible beta-galactosidase reporter gene
T1 sequence (P29274 whole entry): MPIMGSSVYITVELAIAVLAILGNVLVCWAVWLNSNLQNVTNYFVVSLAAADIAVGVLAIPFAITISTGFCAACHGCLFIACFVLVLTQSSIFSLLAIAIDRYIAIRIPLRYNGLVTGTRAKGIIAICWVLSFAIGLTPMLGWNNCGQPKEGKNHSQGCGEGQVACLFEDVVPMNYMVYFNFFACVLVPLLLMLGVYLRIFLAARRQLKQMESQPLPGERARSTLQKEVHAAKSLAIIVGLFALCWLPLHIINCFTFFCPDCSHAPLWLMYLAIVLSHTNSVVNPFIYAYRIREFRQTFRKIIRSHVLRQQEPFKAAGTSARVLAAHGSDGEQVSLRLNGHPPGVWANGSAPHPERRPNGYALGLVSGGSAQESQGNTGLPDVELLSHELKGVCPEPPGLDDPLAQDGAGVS
Experimental: Adenosine A2A Receptor Functional Assay (A2AGAL2)
To initiate the functional assay, cryopreserved CHO-K1 cells overexpressing the human adenosine A2A receptor and containing a cAMP inducible beta-galactosidase reporter gene were thawed, centrifuged, DMSO containing media removed, and then seeded with fresh culture media into clear 384-well tissue culture treated plates (BD #353961) at a concentration of 10K cells/well. Prior to assay, these plates were cultured for two days at 37° C., 5% CO2, 90% Rh. On the day of the functional assay, culture media was removed and replaced with 45 μL assay medium (Hams/F-12 Modified (Mediatech # 10-080CV) supplemented w/0.1% BSA). Test compounds were diluted and 11 point curves created at a 1000× concentration in 100% DMSO. Immediately after addition of assay media to the cell plates, 50 nL of the appropriate test compound antagonist or agonist control curves were added to cell plates using a Cartesian Hummingbird. Compound curves were allowed to incubate at room temperature on cell plates for approximately 15 minutes before addition of a 15 nM NECA (Sigma E2387) agonist challenge (5 μL volume). A control curve of NECA, a DMSO/Media control, and a single dose of Forskolin (Sigma F3917) were also included on each plate. After additions, cell plates were allowed to incubate at 37° C., 5% CO2, 90% Rh for 5.5-6 hours. After incubation, media were removed, and cell plates were washed 1×50 μL with DPBS w/o Ca & Mg (Mediatech 21-031-CV). Into dry wells, 20 μL of 1× Reporter Lysis Buffer (Promega E3971 (diluted in dH2O from 5× stock)) was added to each well and plates frozen at −20° C. overnight. For β-galactosidase enzyme colorimetric assay, plates were thawed out at room temperature and 20 μL 2× assay buffer (Promega) was added to each well. Color was allowed to develop at 37° C., 5% CO2, 90% Rh for 1-1.5 hours or until reasonable signal appeared. The colorimetric reaction was stopped with the addition of 60 μL/well 1M sodium carbonate. Plates were counted at 405 nm on a SpectraMax Microplate Reader (Molecular Devices). Data was analyzed in Microsoft Excel and IC/EC50 curves were fit using a standardized macro.

[2] = biological target: T2, human adenosine A1 receptor (Homo sapiens, UniProt P30542); test: Adenosine A1 Receptor Functional Assay (A1GAL2); format: cell-based; details: CHO-K1 cells overexpressing human A1, cAMP inducible beta-galactosidase reporter, antagonist vs 4 nM r-PIA/1 uM Forskolin challenge
T2 construct: expressed in transfected cells; host or cells: CHO-K1 cells with a cAMP inducible beta-galactosidase reporter gene
T2 sequence (P30542 1-326): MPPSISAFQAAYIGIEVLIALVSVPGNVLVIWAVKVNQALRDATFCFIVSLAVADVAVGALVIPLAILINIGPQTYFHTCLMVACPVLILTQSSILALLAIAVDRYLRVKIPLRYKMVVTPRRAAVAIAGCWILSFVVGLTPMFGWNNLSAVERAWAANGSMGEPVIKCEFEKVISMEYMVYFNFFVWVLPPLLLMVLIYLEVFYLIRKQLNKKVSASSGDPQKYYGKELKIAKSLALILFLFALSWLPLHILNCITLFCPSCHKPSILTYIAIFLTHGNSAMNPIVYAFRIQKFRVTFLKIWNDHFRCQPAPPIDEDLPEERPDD
Experimental: Adenosine A1 Receptor Functional Assay (A1GAL2)
To initiate the functional assay, cryopreserved CHO-K1 cells overexpressing the human adenosine A1 receptor and containing a cAMP inducible beta-galactosidase reporter gene were thawed, centrifuged, DMSO containing media removed, and then seeded with fresh culture media into clear 384-well tissue culture treated plates (BD #353961) at a concentration of 10K cells/well. Prior to assay, these plates were cultured for two days at 37° C., 5% CO2, 90% Rh. On the day of the functional assay, culture media was removed and replaced with 45 μL assay medium (Hams/F-12 Modified (Mediatech # 10-080CV) supplemented w/0.1% BSA). Test compounds were diluted and 11 point curves created at a 1000× concentration in 100% DMSO. Immediately after addition of assay media to the cell plates, 50 nL of the appropriate test compound antagonist or agonist control curves were added to cell plates using a Cartesian Hummingbird. Compound curves were allowed to incubate at room temperature on cell plates for approximately 15 minutes before addition of a 4 nM r-PIA (Sigma P4532)/1 uM Forskolin (Sigma F3917) agonist challenge (5 μL volume). A control curve of r-PIA in 1 uM Forskolin, a DMSO/Media control, and a single dose of Forskolin were also included on each plate. After additions, cell plates were allowed to incubate at 37° C., 5% CO2, 90% Rh for 5.5-6 hours. After incubation, media was removed, and cell plates were washed 1×50 μL with DPBS w/o Ca & Mg (Mediatech 21-031-CV). Into dry wells, 20 μL of 1× Reporter Lysis Buffer (Promega E3971 (diluted in dH2O from 5× stock)) was added to each well and plates frozen at −20° C. overnight. For β-galactosidase enzyme colorimetric assay, plates were thawed out at room temperature and 20 μL 2× assay buffer (Promega) was added to each well. Color was allowed to develop at 37° C., 5% CO2, 90% Rh for 1-1.5 hours or until reasonable signal appeared. The colorimetric reaction was stopped with the addition of 60 μL/well 1M sodium carbonate. Plates were counted at 405 nm on a SpectraMax Microplate Reader (Molecular Devices). Data was analyzed in Microsoft Excel and IC/EC50 curves were fit using a standardized macro.

Row | SMILES | pIC50 [1] | A1/A2A [1] | pIC50 [2]
1 | Cc1cccc(-c2cccc3c2-c2nc(N)nc(-c4ccc(F)cc4)c2C3=O)c1 [Example 16, 2-Amino-4-(4-fluoro-phenyl)-9-m-tolyl-indeno[1,2-d]pyrimidin-5-one] | 7.51 | 58.0645 | 5.74
2 | CCCN1CCN(c2ccc(-c3cccc4c3-c3nc(N)nc(-c5ccc(F)cc5)c3C4=O)cc2)CC1 [Example 15, 2-Amino-4-(4-fluoro-phenyl)-9-[4-(4-propyl-piperazin-1-yl)-phenyl]-indeno[1,2-d]pyrimidin-5-one] | 8.06 | 59.7701 | 6.28
3 | N#Cc1ccc(-c2cccc3c2-c2nc(N)nc(-c4ccc(F)cc4)c2C3=O)cc1 [Example 10, 4-[2-Amino-4-(4-fluoro-phenyl)-5-oxo-5H-indeno[1,2-d]pyrimidin-9-yl]-benzonitrile] | 8.59 | 103.846 | 6.57
4 | COc1ccc(-c2cccc3c2-c2nc(N)nc(-c4ccccc4)c2C3=O)cc1 [Example 17, 2-Amino-9-(4-methoxy-phenyl)-4-phenyl-indeno[1,2-d]pyrimidin-5-one] | 8.20 | 52.381 | 6.48
5 | Nc1nc(-c2ccc(F)cc2)c2c(n1)-c1c(cccc1-c1ccc(OCCN3CCOCC3)cc1)C2=O [Example 13, 2-Amino-4-(4-fluoro-phenyl)-9-[4-(2-morpholin-4-yl-ethoxy)-phenyl]-indeno[1,2-d]pyrimidin-5-one] | 8.41 | 69.2308 | 6.57
6 | Nc1nc(-c2ccc(F)cc2)c2c(n1)-c1c(cccc1-c1ccc(N3CCN(Cc4ccccc4)CC3)cc1)C2=O [Example 4, 2-Amino-9-[4-(4-benzyl-piperazin-1-yl)-phenyl]-4-(4-fluoro-phenyl)-indeno[1,2-d]pyrimidin-5-one] | 8.00 | 310 | 5.51
7 | COCCN1CCN(c2ccc(-c3cccc4c3-c3nc(N)nc(-c5ccc(F)cc5)c3C4=O)cc2)CC1 [Example 8, 2-Amino-4-(4-fluoro-phenyl)-9-{4-[4-(2-methoxy-ethyl)-piperazin-1-yl]-phenyl}-indeno[1,2-d]pyrimidin-5-one] | 8.74 | 127.778 | 6.64
8 | CC(C)N1CCN(c2ccc(-c3cccc4c3-c3nc(N)nc(-c5ccc(F)cc5)c3C4=O)cc2)CC1 [Example 9, 2-Amino-4-(4-fluoro-phenyl)-9-[4-(4-isopropyl-piperazin-1-yl)-phenyl]-indeno[1,2-d]pyrimidin-5-one] | 7.80 | 112.5 | 5.74
9 | CCC(CC)N1CCN(c2ccc(-c3cccc4c3-c3nc(N)nc(-c5ccc(F)cc5)c3C4=O)cc2)CC1 [Example 5, 2-Amino-9-{4-[4-(1-ethyl-propyl)-piperazin-1-yl]-phenyl}-4-(4-fluoro-phenyl)-indeno[1,2-d]pyrimidin-5-one] | 7.64 | 182.609 | 5.38
10 | Nc1nc(-c2ccccc2)c2c(n1)-c1c(cccc1-c1ccccc1)C2=O [Example 14, 2-Amino-4,9-diphenyl-indeno[1,2-d]pyrimidin-5-one] | 8.07 | 66.2791 | 6.24
11 | CCN1CCN(c2ccc(-c3cccc4c3-c3nc(N)nc(-c5ccc(F)cc5)c3C4=O)cc2)CC1 [Example 12, 2-Amino-9-[4-(4-ethyl-piperazin-1-yl)-phenyl]-4-(4-fluoro-phenyl)-indeno[1,2-d]pyrimidin-5-one] | 8.00 | 76 | 6.12
12 | CCC(C)N1CCN(c2ccc(-c3cccc4c3-c3nc(N)nc(-c5ccc(F)cc5)c3C4=O)cc2)CC1 (stereo not drawn) [Example 6, 2-Amino-9-[4-(4-sec-butyl-piperazin-1-yl)-phenyl]-4-(4-fluoro-phenyl)-indeno[1,2-d]pyrimidin-5-one] | 8.01 | 142.857 | 5.85
13 | Nc1nc(-c2ccc(F)cc2)c2c(n1)-c1c(cccc1-c1ccc(N3CCN(CC4CC4)CC3)cc1)C2=O [Example 7, 2-Amino-9-[4-(4-cyclopropylmethyl-piperazin-1-yl)-phenyl]-4-(4-fluoro-phenyl)-indeno[1,2-d]pyrimidin-5-one] | 8.08 | 131.69 | 5.96
14 | CC(C)CCN1CCN(c2ccc(-c3cccc4c3-c3nc(N)nc(-c5ccc(F)cc5)c3C4=O)cc2)CC1 [Example 11, 2-Amino-4-(4-fluoro-phenyl)-9-{4-[4-(3-methyl-butyl)-piperazin-1-yl]-phenyl}-indeno[1,2-d]pyrimidin-5-one] | 7.96 | 100 | 5.96
15 | Nc1nc(-c2ccc(F)cc2)c2c(n1)-c1c(cccc1-c1ccc(N3CCN(CCC(F)(F)F)CC3)cc1)C2=O [Example 1, 2-Amino-4-(4-fluoro-phenyl)-9-{4-[4-(3,3,3-trifluoro-propyl)-piperazin-1-yl]-phenyl}-indeno[1,2-d]pyrimidin-5-one] | 8.74 | 3055.56 | 5.26
16 | CC(C)CN1CCN(c2ccc(-c3cccc4c3-c3nc(N)nc(-c5ccc(F)cc5)c3C4=O)cc2)CC1 [Example 2, 2-Amino-4-(4-fluoro-phenyl)-9-[4-(4-isobutyl-piperazin-1-yl)-phenyl]-indeno[1,2-d]pyrimidin-5-one] | 8.15 | 591.549 | 5.38
17 | Nc1nc(-c2ccc(F)cc2)c2c(n1)-c1c(cccc1-c1cccc(F)c1)C2=O [Example 3, 2-Amino-4-(4-fluoro-phenyl)-9-(3-fluoro-phenyl)-indeno[1,2-d]pyrimidin-5-one] | 7.59 | 342.308 | 5.05
